# Results published in PubChem BioAssay (NCI).
#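 Abbreviation: GI50, concentration required for 50% inhibition of growth. TGI is the concentration that stops growth completely.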
# Legend:
# Assay in all cases: growth of human tumour cells (NCI), 384-well format
# [1] = system: MDA-MB-468 breast
# [2] = system: T-47D breast
# [3] = system: HOP-92 NSCLC
# [4] = system: DU-145 prostate
# [5] = system: KM12 colon
# [6] = system: SK-OV-3 ovarian
# [7] = system: OVCAR-3 ovarian
# [8] = system: SK-MEL-28 melanoma
# [9] = system: SN12C renal
# [10] = system: K-562 leukemia
# [11] = system: ACHN renal
# [12] = system: RXF 393 renal
# [13] = system: COLO 205 colon
# [14] = system: NCI/ADR-RES ovarian
# [15] = system: RPMI-8226 leukemia
# [16] = system: HOP-62 NSCLC
# [17] = system: IGROV1 ovarian
# [18] = system: SF-295 CNS
# [19] = system: HCT-15 colon
# [20] = system: MDA-MB-435 melanoma
# [21] = system: MOLT-4 leukemia
# [22] = system: PC-3 prostate
# [23] = system: MDA-MB-231 breast
# [24] = system: OVCAR-8 ovarian
# [25] = system: SF-268 CNS
# [26] = system: 786-0 renal
# [27] = system: TK-10 renal
# [28] = system: NCI-H460 NSCLC
# [29] = system: HT29 colon
# [30] = system: SF-539 CNS
# [31] = system: EKVX NSCLC
# [32] = system: UACC-62 melanoma
# [33] = system: M14 melanoma
# [34] = system: NCI-H226 lung
# [35] = system: NCI-H322M lung
# [36] = system: CAKI-1 renal
# [37] = system: BT-549 breast
# [38] = system: HS 578T breast
# [39] = system: HL-60(TB) leukemia
# [40] = system: U251 glioblastoma
# [41] = system: LOX IMVI melanoma
# [42] = system: MALME-3M melanoma
# [43] = system: A549 NSCLC
# [44] = system: SNB-19 CNS
# [45] = system: HCT-116 colon
# [46] = system: HCC-2998 colon
# [47] = system: SW-620 colon
# [48] = system: A498 renal
# [49] = system: SK-MEL-5 melanoma
# [50] = system: NCI-H522 lung
# [51] = system: UO-31 renal
# [52] = system: OVCAR-4 ovarian
# [53] = system: SNB-75 CNS
# [54] = system: NCI-H23 lung
# [55] = system: CCRF-CEM leukemia
# [56] = system: OVCAR-5 ovarian
# [57] = system: MCF7 breast
# [58] = system: UACC-257 melanoma
# [59] = system: SK-MEL-2 melanoma
structure (smiles),measurement,setting,value
CCOC(=O)C(Cc1ccc(CCCC(=O)NCCC(=O)Nc2ccc3nc(C)sc3c2)cc1)C(=O)OCC,GI50,[1],12 µM
same,TGI,[1],25.6 µM
same,GI50,[2],8.21 µM
same,TGI,[2],20.4 µM
same,GI50,[3],25.8 µM
same,TGI,[3],68.2 µM
same,GI50,[4],19.8 µM
same,TGI,[4],34.9 µM
same,GI50,[5],18.8 µM
same,TGI,[5],37.3 µM
same,GI50,[6],22.6 µM
same,TGI,[6],46.8 µM
same,GI50,[7],21.9 µM
same,TGI,[7],40.4 µM
same,GI50,[8],26.6 µM
same,TGI,[8],51.7 µM
same,GI50,[9],24.7 µM
same,TGI,[9],48.4 µM
same,GI50,[10],14 µM
same,TGI,[10],33.6 µM
same,GI50,[11],18 µM
same,TGI,[11],31.9 µM
same,GI50,[12],21.8 µM
same,TGI,[12],48.3 µM
same,GI50,[13],21.1 µM
same,TGI,[13],40.3 µM
same,GI50,[14],17.9 µM
same,TGI,[14],31.9 µM
same,GI50,[15],17.7 µM
same,TGI,[15],31.7 µM
same,GI50,[16],17.2 µM
same,TGI,[16],35.9 µM
same,GI50,[17],26.2 µM
same,TGI,[17],51.9 µM
same,GI50,[18],35.4 µM
same,TGI,[18],> 100 µM
same,GI50,[19],23.1 µM
same,TGI,[19],47.9 µM
same,GI50,[20],23.5 µM
same,TGI,[20],41.2 µM
same,GI50,[21],13 µM
same,TGI,[21],25.7 µM
same,GI50,[22],19.4 µM
same,TGI,[22],33.9 µM
same,GI50,[23],21.1 µM
same,TGI,[23],48.1 µM
same,GI50,[24],18.1 µM
same,TGI,[24],32 µM
same,GI50,[25],17.7 µM
same,TGI,[25],38.3 µM
same,GI50,[26],26.7 µM
same,TGI,[26],75 µM
same,GI50,[27],30.4 µM
same,TGI,[27],83.9 µM
same,GI50,[28],19.2 µM
same,TGI,[28],35.9 µM
same,GI50,[29],21.3 µM
same,TGI,[29],42.5 µM
same,GI50,[30],18.7 µM
same,TGI,[30],32.8 µM
same,GI50,[31],27.7 µM
same,TGI,[31],69.6 µM
same,GI50,[32],19.1 µM
same,TGI,[32],33.6 µM
same,GI50,[33],19.3 µM
same,TGI,[33],37 µM
same,GI50,[34],17.1 µM
same,TGI,[34],32.1 µM
same,GI50,[35],19.4 µM
same,TGI,[35],38.3 µM
same,GI50,[36],18.4 µM
same,TGI,[36],33.1 µM
same,GI50,[37],19.2 µM
same,TGI,[37],33.8 µM
same,GI50,[38],19.8 µM
same,TGI,[38],34.5 µM
same,GI50,[39],23 µM
same,TGI,[39],37.6 µM
same,GI50,[40],37.6 µM
same,TGI,[40],> 100 µM
same,GI50,[41],16.8 µM
same,TGI,[41],30.8 µM
same,GI50,[42],22.5 µM
same,TGI,[42],45.7 µM
same,GI50,[43],23.3 µM
same,TGI,[43],59.1 µM
same,GI50,[44],63.1 µM
same,TGI,[44],> 100 µM
same,GI50,[45],25.9 µM
same,TGI,[45],62.8 µM
same,GI50,[46],10.2 µM
same,TGI,[46],35.6 µM
same,GI50,[47],55.2 µM
same,TGI,[47],> 100 µM
same,GI50,[48],27.7 µM
same,TGI,[48],64.1 µM
same,GI50,[49],14.1 µM
same,TGI,[49],27.1 µM
same,GI50,[50],20.5 µM
same,TGI,[50],37.1 µM
same,GI50,[51],22.9 µM
same,TGI,[51],48.7 µM
same,GI50,[52],32.5 µM
same,TGI,[52],72 µM
same,GI50,[53],19.7 µM
same,TGI,[53],35.8 µM
same,GI50,[54],19.7 µM
same,TGI,[54],37.2 µM
same,GI50,[55],17.5 µM
same,TGI,[55],31.4 µM
same,GI50,[56],> 100 µM
same,TGI,[56],> 100 µM
same,GI50,[57],16.7 µM
same,TGI,[57],32.5 µM
same,GI50,[58],19 µM
same,TGI,[58],33.1 µM
COc1c(OC[C@H](O)CN2CCOCC2)ccc2c3n(c(=NC(=O)c4cccnc4C)nc12)CCN3,GI50,[1],0.439 µM
same,TGI,[1],> 100 µM
same,GI50,[2],0.0446 µM
same,TGI,[2],0.573 µM
same,GI50,[4],> 100 µM
same,TGI,[4],> 100 µM
same,GI50,[5],> 100 µM
same,TGI,[5],> 100 µM
same,GI50,[6],0.413 µM
same,TGI,[6],> 100 µM
same,GI50,[7],> 100 µM
same,TGI,[7],> 100 µM
same,GI50,[8],55.1 µM
same,TGI,[8],> 100 µM
same,GI50,[9],> 100 µM
same,TGI,[9],> 100 µM
same,GI50,[10],> 100 µM
same,TGI,[10],> 100 µM
same,GI50,[11],> 100 µM
same,TGI,[11],> 100 µM
same,GI50,[12],> 100 µM
same,TGI,[12],> 100 µM
same,GI50,[13],> 100 µM
same,TGI,[13],> 100 µM
same,GI50,[14],> 100 µM
same,TGI,[14],> 100 µM
same,GI50,[15],> 100 µM
same,TGI,[15],> 100 µM
same,GI50,[16],> 100 µM
same,TGI,[16],> 100 µM
same,GI50,[17],0.111 µM
same,TGI,[17],> 100 µM
same,GI50,[18],> 100 µM
same,TGI,[18],> 100 µM
same,GI50,[19],> 100 µM
same,TGI,[19],> 100 µM
same,GI50,[59],> 100 µM
same,TGI,[59],> 100 µM
same,GI50,[20],> 100 µM
same,TGI,[20],> 100 µM
same,GI50,[21],0.16 µM
same,TGI,[21],> 100 µM
same,GI50,[22],0.657 µM
same,TGI,[22],> 100 µM
same,GI50,[23],> 100 µM
same,TGI,[23],> 100 µM
same,GI50,[24],> 100 µM
same,TGI,[24],> 100 µM
same,GI50,[25],> 100 µM
same,TGI,[25],> 100 µM
same,GI50,[26],> 100 µM
same,TGI,[26],> 100 µM
same,GI50,[27],2.86 µM
same,TGI,[27],> 100 µM
same,GI50,[29],> 100 µM
same,TGI,[29],> 100 µM
same,GI50,[30],> 100 µM
same,TGI,[30],> 100 µM
same,GI50,[32],> 100 µM
same,TGI,[32],> 100 µM
same,GI50,[33],> 100 µM
same,TGI,[33],> 100 µM
same,GI50,[34],> 100 µM
same,TGI,[34],> 100 µM
same,GI50,[35],67.1 µM
same,TGI,[35],> 100 µM
same,GI50,[36],> 100 µM
same,TGI,[36],> 100 µM
same,GI50,[37],38.6 µM
same,TGI,[37],> 100 µM
same,GI50,[38],3.51 µM
same,TGI,[38],> 100 µM
same,GI50,[39],0.0145 µM
same,TGI,[39],> 100 µM
same,GI50,[40],> 100 µM
same,TGI,[40],> 100 µM
same,GI50,[41],> 100 µM
same,TGI,[41],> 100 µM
same,GI50,[42],> 100 µM
same,TGI,[42],> 100 µM
same,GI50,[43],> 100 µM
same,TGI,[43],> 100 µM
same,GI50,[44],> 100 µM
same,TGI,[44],> 100 µM
same,GI50,[45],> 100 µM
same,TGI,[45],> 100 µM
same,GI50,[46],> 100 µM
same,TGI,[46],> 100 µM
same,GI50,[47],> 100 µM
same,TGI,[47],> 100 µM
same,GI50,[48],> 100 µM
same,TGI,[48],> 100 µM
same,GI50,[49],> 100 µM
same,TGI,[49],> 100 µM
same,GI50,[50],> 100 µM
same,TGI,[50],> 100 µM
same,GI50,[51],> 100 µM
same,TGI,[51],> 100 µM
same,GI50,[52],> 100 µM
same,TGI,[52],> 100 µM
same,GI50,[53],0.124 µM
same,TGI,[53],> 100 µM
same,GI50,[54],> 100 µM
same,TGI,[54],> 100 µM
same,GI50,[55],4.36 µM
same,TGI,[55],> 100 µM
same,GI50,[56],> 100 µM
same,TGI,[56],> 100 µM
same,GI50,[57],0.0879 µM
same,TGI,[57],> 100 µM
same,GI50,[58],> 100 µM
same,TGI,[58],> 100 µM
